According to US9382254B2, “Compounds and pharmaceutical compositions thereof for the treatment of cystic fibrosis” (Galapagos NV, priority 2013, dated 2016):

What was measured:
CFTR ΔF508 mutant = target: T1, CFTR ΔF508 mutant (Homo sapiens, UniProt P13569, DEL508-508); test: YFP-halide influx assay for the CFTR-ΔF508 mutation (384 well, FDSS/μCell); format: cell-based; settings: CFBE41o- cells, CFTR-ΔF508, 1×D-PBS, fluorescence after 36 seconds
T1 construct: expressed in transfected cells; host or cells: CFBE41o- (adenoviral transduction)
From the text: The YFP halide influx assay measures the functionality of the cystic fibrosis Transmembrane Conductance regulator (CFTR) channels in the cystic fibrosis bronchial epithelium cell line CFBE41o-. The assay is used to evaluate the capacity of compounds to increase the open probability of existing CFTR channels in the membrane. It makes use of the observation that the yellow fluorescent protein (YFP) variant YFP H148Q, I152L has its fluorescence substantially quenched by halide ions like Cl— and I—. (Galietta, Haggie, & Verkman, 2001) (Nagai, et al., 2002)
For this purpose, CFBE41o-cells are seeded in 384 well plates (3000 CFBE cells/well). One day after seeding, the CFBE cells are transduced with adenoviral vectors that direct the expression of the CFTR ΔF508 mutant and of the YFP reporter. Cells are incubated at 27° C., 5% CO2 for 24 hours so as to allow for the proper folding and migration to the membrane of the CFTR channel or treated with a CFTR modulator during 24 h at 37° C.
(§1) The I— induced quenching of fluorescence is recorded on an immediately after injection of I— for 2 min on an FDSS/μCell (Hamamatsu). The capacity of a compound to increase the channel opening is directly correlated with the decrease in fluorescence, and is expressed as (1-(fluorescence after 36 seconds (F)/fluorescence before injection (F0))) and an EC50 can be derived from a (1-F/F0) vs compound concentration plot.

CFTR G551D mutant = target: T2, CFTR G551D mutant (Homo sapiens, UniProt P13569, G551D); test: YFP-halide influx assay for the CFTR-G551D mutation; format: cell-based; settings: HEK293 cells, forskolin 10.67 μM
T2 construct: expressed in transfected cells; host or cells: HEK293 (reverse transfection with plasmid)
From the text: The YFP halide influx assay measures the functionality of the cystic fibrosis Transmembrane Conductance regulator (CFTR) channels. The assay is used to evaluate the capacity of compounds to increase the channel opening of existing mutant CFTR channels in the membrane. It makes use of the observation that the yellow fluorescent protein (YFP) variant YFP H148Q, I152L, […] has its fluorescence substantially quenched by halide ions like Cl^− and I^−. (Galietta, Haggie, & Verkman, 2001)
For this purpose, HEK293-cells are seeded in 96 well plates. During seeding, the cells are reverse-transfected with plasmid vectors that direct the expression of the CFTR G551D mutant and of the YFP reporter. Cells are incubated at 37° C., 5% CO2 for 24 hours so as to allow for sufficient expression of the CFTR protein.
as §1, with “I^−-induced” for “I— induced”, “recorded” for “recorded on an”, “I^−” for “I—”, “7 seconds.” for “2 min on an FDSS/μCell (Hamamatsu).”, “7” for “36”

T2 sequence (P13569 whole entry G551D): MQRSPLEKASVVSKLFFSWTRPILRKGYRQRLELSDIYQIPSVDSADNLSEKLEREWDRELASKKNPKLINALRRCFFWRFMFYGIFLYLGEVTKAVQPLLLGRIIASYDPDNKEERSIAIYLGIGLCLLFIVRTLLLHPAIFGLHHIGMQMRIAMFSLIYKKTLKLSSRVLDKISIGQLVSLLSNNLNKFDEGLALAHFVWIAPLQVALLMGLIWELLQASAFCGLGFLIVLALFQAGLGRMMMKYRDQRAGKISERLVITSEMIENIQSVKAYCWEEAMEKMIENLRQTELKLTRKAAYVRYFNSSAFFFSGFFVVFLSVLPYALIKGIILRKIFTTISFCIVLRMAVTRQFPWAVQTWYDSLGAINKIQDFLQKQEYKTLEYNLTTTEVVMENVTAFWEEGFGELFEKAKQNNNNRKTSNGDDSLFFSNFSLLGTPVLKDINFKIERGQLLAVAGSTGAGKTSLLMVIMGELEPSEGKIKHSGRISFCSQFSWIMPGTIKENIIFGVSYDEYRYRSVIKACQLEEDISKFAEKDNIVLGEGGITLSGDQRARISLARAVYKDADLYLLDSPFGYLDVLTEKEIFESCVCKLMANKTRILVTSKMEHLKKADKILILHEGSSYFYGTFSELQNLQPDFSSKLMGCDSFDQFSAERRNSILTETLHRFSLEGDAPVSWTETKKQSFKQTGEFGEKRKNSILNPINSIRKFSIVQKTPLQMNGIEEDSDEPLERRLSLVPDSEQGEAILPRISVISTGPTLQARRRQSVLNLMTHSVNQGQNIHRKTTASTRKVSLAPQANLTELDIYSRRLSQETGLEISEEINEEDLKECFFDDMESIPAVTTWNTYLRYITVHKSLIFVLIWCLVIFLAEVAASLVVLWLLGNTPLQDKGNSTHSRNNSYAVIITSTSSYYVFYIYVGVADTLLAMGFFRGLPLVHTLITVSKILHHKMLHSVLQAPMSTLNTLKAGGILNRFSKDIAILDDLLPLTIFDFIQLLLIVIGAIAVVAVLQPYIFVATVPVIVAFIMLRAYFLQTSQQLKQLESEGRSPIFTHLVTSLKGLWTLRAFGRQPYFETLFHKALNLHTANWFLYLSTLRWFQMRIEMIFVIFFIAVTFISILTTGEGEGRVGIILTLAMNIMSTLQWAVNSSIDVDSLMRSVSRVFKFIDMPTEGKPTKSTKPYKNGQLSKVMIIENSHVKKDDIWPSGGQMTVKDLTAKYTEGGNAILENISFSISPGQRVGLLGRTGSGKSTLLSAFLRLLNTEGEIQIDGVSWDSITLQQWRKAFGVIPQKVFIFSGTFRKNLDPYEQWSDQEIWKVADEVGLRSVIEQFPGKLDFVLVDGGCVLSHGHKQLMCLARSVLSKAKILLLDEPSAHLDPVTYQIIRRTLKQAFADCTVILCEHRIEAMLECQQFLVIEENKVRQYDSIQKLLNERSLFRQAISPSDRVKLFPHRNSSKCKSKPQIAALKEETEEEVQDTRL
T1 sequence (P13569 with tags, fused parts or gaps DEL508-508): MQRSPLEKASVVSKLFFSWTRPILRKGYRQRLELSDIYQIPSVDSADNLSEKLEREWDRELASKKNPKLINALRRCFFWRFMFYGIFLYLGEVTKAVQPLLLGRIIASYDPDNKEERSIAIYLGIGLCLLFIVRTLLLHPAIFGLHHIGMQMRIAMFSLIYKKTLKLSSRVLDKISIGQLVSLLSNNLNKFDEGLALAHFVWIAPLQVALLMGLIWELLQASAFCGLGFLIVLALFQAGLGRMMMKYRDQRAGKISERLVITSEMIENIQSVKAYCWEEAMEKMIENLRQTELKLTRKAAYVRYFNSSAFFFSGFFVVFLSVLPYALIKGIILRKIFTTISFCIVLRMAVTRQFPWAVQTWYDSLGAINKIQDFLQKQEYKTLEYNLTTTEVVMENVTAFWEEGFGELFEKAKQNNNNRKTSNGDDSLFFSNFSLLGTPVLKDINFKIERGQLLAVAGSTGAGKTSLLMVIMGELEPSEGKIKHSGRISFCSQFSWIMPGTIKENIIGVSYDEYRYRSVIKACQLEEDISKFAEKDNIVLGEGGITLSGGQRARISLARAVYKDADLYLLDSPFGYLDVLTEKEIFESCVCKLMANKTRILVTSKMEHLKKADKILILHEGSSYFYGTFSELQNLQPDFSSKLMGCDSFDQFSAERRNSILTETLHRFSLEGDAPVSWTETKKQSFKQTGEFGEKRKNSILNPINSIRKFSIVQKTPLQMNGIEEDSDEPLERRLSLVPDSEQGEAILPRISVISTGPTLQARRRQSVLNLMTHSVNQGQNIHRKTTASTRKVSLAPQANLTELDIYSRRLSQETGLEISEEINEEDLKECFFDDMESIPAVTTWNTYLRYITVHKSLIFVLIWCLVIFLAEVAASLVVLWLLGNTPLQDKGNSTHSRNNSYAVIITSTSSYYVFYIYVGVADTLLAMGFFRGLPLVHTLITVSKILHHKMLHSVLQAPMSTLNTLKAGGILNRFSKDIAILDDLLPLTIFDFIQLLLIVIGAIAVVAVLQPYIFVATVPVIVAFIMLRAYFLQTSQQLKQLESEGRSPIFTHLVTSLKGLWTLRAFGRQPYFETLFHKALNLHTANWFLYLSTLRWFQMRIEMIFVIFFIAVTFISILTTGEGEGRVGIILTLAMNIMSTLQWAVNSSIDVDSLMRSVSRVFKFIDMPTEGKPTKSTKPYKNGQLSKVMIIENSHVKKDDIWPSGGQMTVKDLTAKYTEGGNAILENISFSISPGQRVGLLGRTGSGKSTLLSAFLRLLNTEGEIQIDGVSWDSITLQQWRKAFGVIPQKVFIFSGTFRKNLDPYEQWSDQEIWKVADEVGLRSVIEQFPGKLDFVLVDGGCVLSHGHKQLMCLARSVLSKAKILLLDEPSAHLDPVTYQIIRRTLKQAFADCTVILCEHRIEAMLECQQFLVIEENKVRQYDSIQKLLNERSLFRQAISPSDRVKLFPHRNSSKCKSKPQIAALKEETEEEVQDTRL

## Cc1ccc(S(=O)(=O)c2cc(C(N)=O)c(NC(=O)C(C)(C)O)s2)cc1 [Compound 316, 2-(2-Hydroxy-2-methyl-propionylamino)-5-(toluene-4-sulfonyl)-thiophene-3-carboxylic acid amide]
CFTR ΔF508 mutant
  EC50: 31.1 nM
CFTR G551D mutant
  EC50: 1160 nM

## CC(C)(O)C(=O)Nc1sc(S(=O)(=O)c2ncccc2Cl)cc1C(N)=O [Compound 317, 5-(3-Chloro-pyridine-2-sulfonyl)-2-(2-hydroxy-2-methyl-propionylamino)-thiophene-3-carboxylic acid amide]
CFTR ΔF508 mutant
  EC50: 241 nM
CFTR G551D mutant
  EC50: 3330 nM

## CC(O)C(=O)Nc1sc(S(=O)(=O)c2ccc(OC(F)(F)F)cc2)cc1C(N)=O (stereo not drawn) [Compound 318, 2-(2-Hydroxy-propionylamino)-5-(4-trifluoromethoxy-benzenesulfonyl)-thiophene-3-carboxylic acid amide]
CFTR ΔF508 mutant
  EC50: 20.2 nM
CFTR G551D mutant
  EC50: 716 nM

## NC(=O)c1cc(S(=O)(=O)c2ccccc2OC(F)(F)F)sc1NC(=O)CO [Compound 319, 2-(2-Hydroxy-acetylamino)-5-(2-trifluoromethoxy-benzensulfonyl)-thiophene-3-carboxylic acid amide]
CFTR ΔF508 mutant
  EC50: 8.2 nM
CFTR G551D mutant
  EC50: 377 nM

## CC(O)C(=O)Nc1sc(S(=O)(=O)c2ccccc2Cl)cc1C(N)=O (stereo not drawn) [Compound 321, 5-(2-Chloro-benzenesulfonyl)-2-(2-hydroxy-propionylamino)-thiophene-3-carboxylic acid amide]
CFTR ΔF508 mutant
  EC50: 12.3 nM
CFTR G551D mutant
  EC50: 1930 nM

## CC(C)Oc1ccc(S(=O)(=O)c2cc(C(N)=O)c(NC(=O)C(C)(C)O)s2)c(Cl)c1 [Compound 322, 5-(2-Chloro-4-isopropoxy-benzenesulfonyl)-2-(2-hydroxy-2-methyl-propionylamino)-thiophene-3-carboxylic acid amide]
CFTR ΔF508 mutant
  EC50: 41.1 nM
CFTR G551D mutant
  EC50: 919 nM

## CC(C)Oc1ccc(S(=O)(=O)c2cc(C(N)=O)c(NC(=O)C(C)(C)O)s2)c(C(F)(F)F)c1 [Compound 324, 2-(2-Hydroxy-2-methyl-propionylamino)-5-(4-isopropoxy-2-trifluoromethyl-benzenesulfonyl)-thiophene-3-carboxylic acid amide]
CFTR ΔF508 mutant
  EC50: 84.2 nM
CFTR G551D mutant
  EC50: 3160 nM

## Cc1ncccc1S(=O)(=O)c1cc(C(N)=O)c(NC(=O)C(C)O)s1 (stereo not drawn) [Compound 326, 2-(2-hydroxypropanoylamino)-5-[(2-methyl-3-pyridyl)sulfonyl] thiophene-3-carboxamide]
CFTR ΔF508 mutant
  EC50: 1060 nM
CFTR G551D mutant; class symbol
  EC50: > 1000 nM

## C[C@@H](O)C(=O)Nc1sc(S(=O)(=O)c2ccc(F)cc2)cc1C(N)=O [Compound 327, 5-(4-fluorophenyl) sulfonyl-2-[[(2R)-2-hydroxypropanoyl]amino] thiophene-3-carboxamide]
CFTR ΔF508 mutant
  EC50: 134 nM
CFTR G551D mutant
  EC50: 3330 nM

## CC(O)C(=O)Nc1sc(S(=O)(=O)c2ccc(OC(F)(F)F)cc2Cl)cc1C(N)=O (stereo not drawn) [Compound 328, 5-[2-chloro-4-(trifluoromethoxy)phenyl] sulfonyl-2-(2-hydroxypropanoylamino) thiophene-3-carboxamide]
CFTR ΔF508 mutant
  EC50: 25.8 nM
CFTR G551D mutant
  EC50: 427 nM

## CC(C)(O)C(=O)Nc1sc(S(=O)(=O)c2cccc3c2OC(F)(F)O3)cc1C(N)=O [Compound 330, 5-[(2,2-difluoro-1,3-benzodioxol-4-yl)sulfonyl]-2-[(2-hydroxy-2-methyl-propanoyl)amino] thiophene-3-carboxamide]
CFTR ΔF508 mutant
  EC50: 5.3 nM
CFTR G551D mutant
  EC50: 62.2 nM

## C[C@@H](O)C(=O)Nc1sc(S(=O)(=O)c2ccc(OC(F)(F)F)cc2)cc1C(N)=O [Compound 332, 2-[[(2R)-2-hydroxypropanoyl]amino]-5-[4-(trifluoromethoxy)phenyl] sulfonyl-thiophene-3-carboxamide]
CFTR ΔF508 mutant
  EC50: 22.8 nM
CFTR G551D mutant
  EC50: 525 nM

## CC(O)C(=O)Nc1sc(S(=O)(=O)c2cc(F)ccc2C(F)(F)F)cc1C(N)=O (stereo not drawn) [Compound 335, 5-[5-fluoro-2-(trifluoromethyl)phenyl] sulfonyl-2-(2-hydroxypropanoylamino) thiophene-3-carboxamide]
CFTR ΔF508 mutant
  EC50: 5.7 nM
CFTR G551D mutant
  EC50: 107 nM

## CC(C)(O)C(=O)Nc1sc(S(=O)(=O)c2cc(F)c(F)cc2Cl)cc1C(N)=O [Compound 336, 5-(2-Chloro-4,5-difluoro-benzenesulfonyl)-2-(2-hydroxy-2-methyl-propionylamino)-thiophene-3-carboxylic acid amide]
CFTR ΔF508 mutant
  EC50: 12.2 nM
CFTR G551D mutant
  EC50: 872 nM

## CC(C)(O)C(=O)Nc1sc(S(=O)(=O)c2cc(F)ccc2CC(F)(F)F)cc1C(N)=O [Compound 338, 5-[5-fluoro-2-(2,2,2-trifluoroethyl)phenyl]sulfonyl-2-[(2-hydroxy-2-methyl-propanoyl)amino] thiophene-3-carboxamide]
CFTR ΔF508 mutant
  EC50: 5.4 nM
CFTR G551D mutant
  EC50: 859 nM

## NC(=O)c1cc(S(=O)(=O)c2cc(F)ccc2Cl)sc1NC(=O)CO [Compound 339, 5-(2-Chloro-5-fluoro-benzensulfonyl)-2-(2-hydroxy-acetylamino)-thiophene-3-carboxylic acid amide]
CFTR ΔF508 mutant
  EC50: 8.1 nM
CFTR G551D mutant
  EC50: 1750 nM

## NC(=O)c1cc(S(=O)(=O)c2cc(F)ccc2CC(F)(F)F)sc1NC(=O)CO [Compound 340, 5-[5-Fluoro-2-(2,2,2-trifluoro-ethyl)-benzenesulfonyl]-2-(2-hdyroxy-acetylamino)-thiophene-3-carboxylic acid amide]
CFTR ΔF508 mutant
  EC50: 8 nM
CFTR G551D mutant
  EC50: 478 nM

## CC(C)C(O)C(=O)Nc1sc(S(=O)(=O)c2ccc(F)cc2)cc1C(N)=O (stereo not drawn) [Compound 341, 5-(4-fluorophenyl)sulfonyl-2-[(2-hydroxy-3-methyl-butanoyl)amino] thiophene-3-carboxamide]
CFTR ΔF508 mutant
  EC50: 20.2 nM
CFTR G551D mutant
  EC50: 1510 nM

## CC(C)(C)C(O)C(=O)Nc1sc(S(=O)(=O)c2ccc(F)cc2)cc1C(N)=O (stereo not drawn) [Compound 342, 5-(4-fluorophenyl)sulfonyl-2-[(2-hydroxy-3,3-dimethyl-butanoyl)amino] thiophene-3-carboxamide]
CFTR ΔF508 mutant
  EC50: 105 nM
CFTR G551D mutant
  EC50: 771 nM

## CC(C)CC(O)C(=O)Nc1sc(S(=O)(=O)c2ccc(F)cc2)cc1C(N)=O (stereo not drawn) [Compound 343, 5-(4-fluorophenyl)sulfonyl-2-[(2-hydroxy-4-methyl-pentanoyl)amino] thiophene-3-carboxamide]
CFTR ΔF508 mutant
  EC50: 92.4 nM
CFTR G551D mutant
  EC50: 1420 nM

## CC(C)(O)C(=O)Nc1sc(S(=O)(=O)c2ccc(C(F)(F)F)cc2)cc1C(N)=O [Compound 344, 2-[(2-hydroxy-2-methyl-propanoyl)amino]-5-[4-(trifluoromethyl)phenyl] sulfonyl-thiophene-3-carboxamide]
CFTR ΔF508 mutant
  EC50: 36 nM
CFTR G551D mutant
  EC50: 237 nM

## CC(C)C(O)C(=O)Nc1sc(S(=O)(=O)c2ccc(OC(F)(F)F)cc2)cc1C(N)=O (stereo not drawn) [Compound 345, 2-[(2-hydroxy-3-methyl-butanoyl)amino]-5-[4-(trifluoromethoxy)phenyl] sulfonyl-thiophene-3-carboxamide]
CFTR ΔF508 mutant
  EC50: 111 nM
CFTR G551D mutant
  EC50: 528 nM

## CC(C)CC(O)C(=O)Nc1sc(S(=O)(=O)c2ccc(OC(F)(F)F)cc2)cc1C(N)=O (stereo not drawn) [Compound 346, 2-[(2-hydroxy-4-methyl-pentanoyl)amino]-5-[4-(trifluoromethoxy)phenyl] sulfonyl-thiophene-3-carboxamide]
CFTR ΔF508 mutant
  EC50: 470 nM
CFTR G551D mutant
  EC50: 682 nM

## CC(C)(C)C(O)C(=O)Nc1sc(S(=O)(=O)c2ccc(OC(F)(F)F)cc2)cc1C(N)=O (stereo not drawn) [Compound 349, 2-[(2-hydroxy-3,3-dimethyl-butanoyl)amino]-5-[4-(trifluoromethoxy)phenyl] sulfonyl-thiophene-3-carboxamide]
CFTR ΔF508 mutant
  EC50: 343 nM
CFTR G551D mutant
  EC50: 931 nM
